Measurements as given in article PMC13316043, “Structural basis of NSD2 degradation via targeted recruitment of SCF-FBXO22” (Nature Communications, 2026).

Tested on: BACH1
Assay: Western blot of BACH1 in HEK293T cells
Format: cell-based, human
Details: for BACH1 levels by immunoblot: 10 µM, 6 hrs
Description: HEK293T and U2OS were obtained from ATCC and cultured in high-glucose-containing Dulbecco’s Modified Eagle’s Medium (DMEM; Gibco; cat. #11995) supplemented with 10% fetal bovine serum (VWR) and 1% penicillin/streptomycin (Gibco). Cells were treated with either UNC10415667, UNC12149, UNC12567, hemin (Sigma; cat. #H9039), or DMSO control for the indicated times and analyzed by western blot using standard procedures. Briefly, cells were lysed on ice for 15 min in NETN lysis buffer (20 mM Tris pH 8.0, 100 mM NaCl, 0.5 mM EDTA, 0.5% NP40) supplemented with 10 µg/mL aprotinin, 10 µg/mL leupeptin, 10 µg/mL pepstatin A, 1 mM sodium orthovanadate, 1 mM sodium fluoride, and 1 mM AEBSF (4-[two aminoethyl] benzenesulfonyl fluoride). Cell lysates were centrifuged at 20,000×g in a benchtop microcentrifuge at 4 °C for 10 min. Protein concentration was determined by Bradford assay (Bio-Rad; cat. #5000006). Protein concentration was normalized using Laemmli buffer. Samples were heated for 5 min at 95°C in a dry water-bath. Samples were separated on TGX stain free gels (Bio-Rad) transferred to nitrocellulose membrane and blocked in 5% non-fat dry milk (Biorad; cat. #1706404) diluted in 1x TBS-T (137 mM NaCl, 2.7 mM KCl, 25 mM Tris pH 7.6, 1% Tween-20). Primary antibody incubations (Anti-NSD2 (Abcam; Cat# ab75359; Lot# 1093214-1; 1:1000 dilution), Anti-BACH1 (Fortis Life Sciences; Cat# A303-805A; Lot# 1; 1:1000 dilution), and Anti-GAPDH (Santa Cruz Biotechnology; Cat# sc-47724; Lot# C1023; 1:1000 dilution)) were performed overnight at 4 °C. Secondary antibodies (Peroxidase AffiniPure Goat Anti-Rabbit IgG (H + L) (Jackson Immuno; Cat# 111-035-003; 1:5000 dilution) and Peroxidase AffiniPure Goat Anti-Mouse IgG (H + L) (Jackson Immuno; Cat# 115-035-003; 1:5000 dilution)) were incubated for 1 h at room temperature. Blots were developed by chemiluminescence using Pierce ECL (Thermo Fisher Scientific; cat. #32106).

## O=Cc1ccc(C(=O)N2CCc3cc(NC(=O)c4ccc(CN(C(=O)c5ccc6c(c5)OCC(=O)N6)C5CC5)cc4)ccc3C2)cc1 [UNC10415667]
10 µM UNC10415667 and 20 µM Hemin, 6 h
  BACH1 and NSD2 levels upon co-treatment with Hemin: both BACH1 and NSD2 were degraded
  BACH1 levels by immunoblot: unchanged

## O=C1COc2cc(C(=O)N(Cc3ccc(C(=O)Nc4ccc5c(c4)CCN(C(=O)CCCCC(O)S(=O)(=O)O)C5)cc3)C3CC3)ccc2N1 (stereo not drawn) [UNC10088]
  BACH1 levels by immunoblot: remained constant
